Tests used:
total PD-L1 (tPD-L1) = molecular target: T1, total PD-L1 (tPD-L1) (Homo sapiens, UniProt Q9NZQ7); test: Total PD-L1 relative quantification by flow cytometry; type: cell-based; conditions: 24 h, 100 or 10 μM (Table 7), relative to DMSO control
T1 construct: endogenous in cells; host or cells: HT-29, A-549, MCF-7
Procedure: (§1) The study was carried out again on HT-29, A-549, and MCF-7 cell lines by flow cytometry after 24 h of treatment with the corresponding compounds. The presence of the targets in the whole cell were relatively determined by using DMSO-treated cells as a negative control and BMS-8 as a positive one for PD-L1 (Table 3).
(§2) To study the effect of the compounds on every biological target in cancer cell lines the compounds were used at a 100 or 10 μM dose, depending on their IC50 and the treated cell line.
(§3) For the assay, 10^5 cells per well were incubated for 24 h with the corresponding dose of the tested compound in a total volume of 500 μL of their growth media.
(§4) For the detection of total PD-L1, VEGFR-2, and c-Myc, the procedure was the same as for membrane targets, but after fixation, a treatment with 0,5% in PBS TritonTM X-100 was performed. The antibodies used for PD-L1 and VEGFR-2 were the ones previously described, and for the detection of c-Myc, it was FITC Rabbit monoclonal anti-c-Myc (ab223913).

[1] = test system: HT-29 (colon adenocarcinoma); test: MTT cell viability assay, HT-29; type: cell-based; conditions: Homo sapiens, HT-29, 48 h, 2 days incubation, average ±SD of three experiments
Procedure: (§5) The effects of triazole derivatives 1–26 on the cell viability were determined by MTT assay, and the IC50 values were determined toward the human tumor cell lines HT-29 (colon adenocarcinoma), A-549 (lung adenocarcinoma), and MCF-7 (breast adenocarcinoma), as well as toward the non-tumor cell line HEK-293 (human embryonic kidney cells).
(§6) In 96-well plates, 3 × 10^3 (A549 and HEK-293) or 5 × 10^3 (HT-29, MCF-7) cells per well were incubated with serial dilutions of the tested compounds in a total volume of 100 μL of their growth media. The 3-(4,5-dimethylthiazol-2-yl)-2,5-diphenyltetrazolium bromide (MTT; Sigma Chemical Co.) dye reduction assay in 96-well microplates was used. After 2 days of incubation (37 °C, 5% CO2 in a humid atmosphere), 10 μL of MTT (5 mg/mL in phosphate-buffered saline, PBS) was added to each well, and the plate was incubated for a further 3 h (37 °C). After that, the supernatant was discarded and replaced by 100 µL of DMSO to dissolve formazan crystals. The absorbance was then read at 550 nm by spectro-photometry. For all concentrations of compound, cell viability was expressed as the percentage of the ratio between the mean absorbance of treated cells and the mean absorbance of untreated cells. Three independent experiments were performed, and the IC50 values (i.e., concentration half inhibiting cell proliferation) were graphically determined by using GraphPad Prism 4 software (2019).

[2] = molecular target: T2, membrane VEGFR-2 (mVEGFR-2) (Homo sapiens, UniProt P35968); test: Membrane VEGFR-2 relative quantification by flow cytometry; type: cell-based; conditions: 24 h, 100 or 10 μM (Table 7), sorafenib 10 μM, percentage referred to DMSO control
T2 construct: endogenous in cells; host or cells: HT-29, A-549, MCF-7
Procedure: The presence of both targets in the membrane was relatively determined by using DMSO-treated cells as a negative control.
as §3

[3] = test system: A-549 (lung adenocarcinoma); test: MTT cell viability assay, A-549; type: cell-based; conditions: Homo sapiens, A549, 48 h, 2 days incubation, average ±SD of three experiments
Procedure: as §5, §6

[4] = test system: MCF-7 (breast adenocarcinoma); test: MTT cell viability assay, MCF-7; type: cell-based; conditions: Homo sapiens, MCF7, 48 h, 2 days incubation, average ±SD of three experiments
Procedure: as §5, §6

c-Myc = c-Myc relative quantification by flow cytometry; type: cell-based, human; conditions: 24 h, 100 or 10 μM (Table 7), relative to DMSO control
Procedure: as §1, §2, §3, §4

[5] = test system: HEK-293 (human embryonic kidney cells); test: MTT cell viability assay, HEK-293; type: cell-based; conditions: HEK293, 48 h, 2 days incubation, non-tumor cell line, average ±SD of three experiments
Procedure: as §5, §6

membrane PD-L1 (mPD-L1) = molecular target: T3, membrane PD-L1 (mPD-L1) (Homo sapiens, UniProt Q9NZQ7); test: Membrane PD-L1 relative quantification by flow cytometry; type: cell-based; conditions: 24 h, 100 or 10 μM (Table 7), percentage referred to DMSO control
T3 construct: endogenous in cells; host or cells: HT-29, A-549, MCF-7
Procedure: Based on antiproliferative activity of synthetized derivatives, we decided to study the effect of the amino derivatives 14–26 on the expression of both membrane targets PD-L1 and VEGFR-2 (mPD-L1 and mVEGFR-2). The evaluation was performed on three cancer cell lines (HT-29, A-549, and MCF-7) by flow cytometry after 24 h of treatment with the corresponding compounds. Compounds were used at a 100 or 10 μM concentration depending on their IC50 value (see Table 1 in Materials and Methods section). The presence of both targets in the membrane was relatively determined by using DMSO-treated cells as a negative control.
as §2, §3
To detect membrane PD-L1 and VEGFR-2, after the cell treatments, they were collected, fixed with 4% in PBS paraformaldehyde, and stained with FITC Mouse monoclonal Anti-Human VEGFR-2 (ab184903) and Alexa Fluor® 647 Rabbit monoclonal Anti-PD-L1 (ab215251).

T2 sequence (P35968 20-1356): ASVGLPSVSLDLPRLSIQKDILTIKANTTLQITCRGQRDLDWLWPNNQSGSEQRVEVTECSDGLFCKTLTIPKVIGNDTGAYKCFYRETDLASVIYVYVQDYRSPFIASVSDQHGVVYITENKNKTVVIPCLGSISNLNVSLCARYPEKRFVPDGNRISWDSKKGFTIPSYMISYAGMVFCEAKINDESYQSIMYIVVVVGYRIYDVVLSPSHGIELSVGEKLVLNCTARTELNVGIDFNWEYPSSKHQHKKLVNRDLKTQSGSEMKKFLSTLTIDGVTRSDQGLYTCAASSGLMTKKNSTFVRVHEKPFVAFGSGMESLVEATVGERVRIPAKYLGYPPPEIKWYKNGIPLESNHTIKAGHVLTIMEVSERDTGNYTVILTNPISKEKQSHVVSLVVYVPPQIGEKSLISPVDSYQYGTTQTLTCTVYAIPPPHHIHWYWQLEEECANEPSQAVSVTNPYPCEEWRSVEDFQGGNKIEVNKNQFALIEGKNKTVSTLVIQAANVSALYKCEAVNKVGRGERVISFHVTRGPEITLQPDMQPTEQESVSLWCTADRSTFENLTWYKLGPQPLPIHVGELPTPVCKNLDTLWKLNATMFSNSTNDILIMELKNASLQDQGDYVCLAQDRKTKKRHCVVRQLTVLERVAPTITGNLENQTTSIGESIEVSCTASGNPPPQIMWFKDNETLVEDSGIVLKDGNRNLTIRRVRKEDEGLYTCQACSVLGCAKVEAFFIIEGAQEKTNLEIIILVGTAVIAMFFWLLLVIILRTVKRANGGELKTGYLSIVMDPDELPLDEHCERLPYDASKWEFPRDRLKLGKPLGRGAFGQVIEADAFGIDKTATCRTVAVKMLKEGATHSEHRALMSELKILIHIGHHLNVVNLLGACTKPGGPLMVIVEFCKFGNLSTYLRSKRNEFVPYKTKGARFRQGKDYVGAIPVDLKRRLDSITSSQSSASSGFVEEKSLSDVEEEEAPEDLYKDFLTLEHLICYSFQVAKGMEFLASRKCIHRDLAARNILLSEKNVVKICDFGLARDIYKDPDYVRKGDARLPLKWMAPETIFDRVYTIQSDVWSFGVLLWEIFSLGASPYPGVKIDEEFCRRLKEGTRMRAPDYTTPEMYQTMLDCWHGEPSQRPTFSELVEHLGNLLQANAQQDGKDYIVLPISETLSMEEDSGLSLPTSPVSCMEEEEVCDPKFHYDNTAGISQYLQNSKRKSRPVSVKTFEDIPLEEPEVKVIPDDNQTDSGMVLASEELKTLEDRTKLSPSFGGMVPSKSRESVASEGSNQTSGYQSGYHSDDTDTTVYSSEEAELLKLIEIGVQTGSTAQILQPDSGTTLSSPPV
T1 sequence (Q9NZQ7 19-290): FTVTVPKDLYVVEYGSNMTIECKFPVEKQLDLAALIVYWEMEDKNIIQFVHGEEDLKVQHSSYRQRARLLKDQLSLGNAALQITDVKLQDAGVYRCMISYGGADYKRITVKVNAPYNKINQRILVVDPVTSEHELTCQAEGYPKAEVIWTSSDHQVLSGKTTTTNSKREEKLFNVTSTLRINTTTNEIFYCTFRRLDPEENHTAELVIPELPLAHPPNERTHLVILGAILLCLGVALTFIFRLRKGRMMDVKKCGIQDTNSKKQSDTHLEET
T3 sequence (Q9NZQ7 19-290): as above

Row | Structure (SMILES) | melting point [°C] | tPD-L1 relative detection, A-549 (total PD-L1 (tPD-L1)) [%] | tPD-L1 relative detection, HT-29 (total PD-L1 (tPD-L1)) [%] | tPD-L1 relative detection, MCF-7 (total PD-L1 (tPD-L1)) [%] | IC50 [1] [µM] | mVEGFR-2 relative detection, A-549 [2] [%] | mVEGFR-2 relative detection, HT-29 [2] [%] | mVEGFR-2 relative detection, MCF-7 [2] [%] | IC50 [3] [µM] | IC50 [4] [µM] | c-Myc relative detection, A-549 (c-Myc) [%] | c-Myc relative detection, HT-29 (c-Myc) [%] | c-Myc relative detection, MCF-7 (c-Myc) [%] | IC50 [5] [µM] | mPD-L1 relative detection, A-549 (membrane PD-L1 (mPD-L1)) [%] | mPD-L1 relative detection, HT-29 (membrane PD-L1 (mPD-L1)) [%] | mPD-L1 relative detection, MCF-7 (membrane PD-L1 (mPD-L1)) [%]
1 | Clc1ccccc1Cn1cc(-c2ccccc2)nn1 [Compound 8, 1-(2-chlorobenzyl)-4-phenyl-1H-1,2,3-triazole] | 86 to 88 | – | – | – | – | – | – | – | – | – | – | – | – | – | – | – | –
2 | Clc1cccc(Cn2cc(-c3ccccc3)nn2)c1 [Compound 9, 1-(3-chlorobenzyl)-4-phenyl-1H-1,2,3-triazole] | 108 to 110 | – | – | – | – | – | – | – | – | – | – | – | – | – | – | – | –
3 | Clc1ccc(Cn2cc(-c3ccccc3)nn2)cc1 [Compound 10, 1-(4-chlorobenzyl)-4-phenyl-1H-1,2,3-triazole] | 141 to 144 | – | – | – | – | – | – | – | – | – | – | – | – | – | – | – | –
4 | Brc1ccccc1Cn1cc(-c2ccccc2)nn1 [Compound 11, 1-(2-bromobenzyl)-4-phenyl-1H-1,2,3-triazole] | 100 to 103 | – | – | – | – | – | – | – | – | – | – | – | – | – | – | – | –
5 | Brc1cccc(Cn2cc(-c3ccccc3)nn2)c1 [Compound 12, 1-(3-bromobenzyl)-4-phenyl-1H-1,2,3-triazole] | 96 to 99 | – | – | – | – | – | – | – | – | – | – | – | – | – | – | – | –
6 | Brc1ccc(Cn2cc(-c3ccccc3)nn2)cc1 [Compound 13, 1-(4-bromobenzyl)-4-phenyl-1H-1,2,3-triazole] | 153 to 155 | – | – | – | – | – | – | – | – | – | – | – | – | – | – | – | –
7 | Nc1ccc(-c2cn(Cc3ccccc3)nn2)cc1 [Compound 14, 4-(1-benzyl-1H-1,2,3-triazol-4-yl)aniline] | 180 to 181 | 98 ± 3 | >100 | >100 | 2 ± 1 | >100 | 95 ± 6 | >100 | > 100 | 1 | >100 | >100 | 60 ± 3 | > 100 | >100 | >100 | 94 ± 5
8 | Cc1ccccc1Cn1cc(-c2ccc(N)cc2)nn1 [Compound 15, 4-(1-(2-methylbenzyl)-1H-1,2,3-triazol-4-yl)aniline] | 131 to 133 | >100 | >100 | >100 | 7 ± 1 | >100 | 87 ± 1 | >100 | 4 ± 3 | 4 ± 1 | >100 | >100 | >100 | > 100 | 90 ± 6 | 74 ± 13 | 84 ± 11
9 | Cc1cccc(Cn2cc(-c3ccc(N)cc3)nn2)c1 [Compound 16, 4-(1-(3-methylbenzyl)-1H-1,2,3-triazol-4-yl)aniline] | 128 to 129 | >100 | >100 | >100 | 9 ± 6 | >100 | 93 ± 1 | >100 | 0.7 | 2.1 | >100 | >100 | 78 ± 7 | 63 ± 34 | 86 ± 17 | 66 ± 21 | >100
10 | Nc1ccc(-c2cn(Cc3cccc(Br)c3)nn2)cc1 [Compound 25, 4-(1-(3-bromobenzyl)-1H-1,2,3-triazol-4-yl)aniline] | 134 to 135 | 76 ± 1 | 48 ± 7 | >100 | 8.5 | >100 | >100 | >100 | – | 8 ± 4 | >100 | >100 | 56 ± 10 | 4 ± 3 | >100 | 87 ± 17 | 87 ± 17
11 | CNC(=O)c1cc(Oc2ccc(NC(=O)Nc3ccc(Cl)c(C(F)(F)F)c3)cc2)ccn1 [Sorafenib, sorafenib, reference compound] | – | – | – | – | 17 ± 4 | – | – | – | 27 ± 2 | 14 ± 4 | – | – | – | 5 | – | – | –

Reference: publication PMC9266368, “Synthesis and Biological Evaluation of Small Molecules as Potential Anticancer Multitarget Agents” (International Journal of Molecular Sciences, 2022)
